Consider two molecules from publication PMC5559490, “Synthesis of Saccharumoside-B analogue with potential of antiproliferative and pro-apoptotic activities” (Scientific Reports, 2017).

In series [1] the test system is CaCo-2 colon cancer cells. Briefly: MTT antiproliferative assay, CaCo-2. In kind it is cell-based. To be noted: Homo sapiens, Caco-2; MTT assay; cancer cell line; mean of three independent experiments ± S.E.M.; read-out: IC50 CaCo-2 Colon. In general terms: Tetrazolium assays rely on reduction of a dye to a coloured formazan, in cell work by metabolically active cells.

Series [2] relates to MIA PaCa-2 pancreatic cancer cells. Briefly: MTT antiproliferative assay, MIA PaCa-2. In kind it is cell-based. Conditions: Homo sapiens, MIA PaCa-2; MTT assay; cancer cell line; mean of three independent experiments ± S.E.M.; read-out: IC50 MIA PaCa-2 Pancreatic.
Series [3] concerns MCF-7 breast cancer cells. Briefly: MTT antiproliferative assay, MCF-7. In kind it is cell-based. To be noted: Homo sapiens, MCF7; MTT assay; cancer cell line; mean of three independent experiments ± S.E.M.; read-out: IC50 MCF-7 Breast.
Series [4] concerns MCF-10A mammary epithelial cells. The series is described as follows: MTT assay on normal MCF-10A cells. In kind it is cell-based. Conditions: Homo sapiens, MTT assay, normal cells, 48 h, read-out: IC50 MCF-10A Breast (normal cell line).
For the next series, the system named is HL-60 leukemia cells. The series is described as follows: MTT antiproliferative assay, HL-60. Conditions: Homo sapiens, HL-60; MTT assay; cancer cell line; mean of three independent experiments ± S.E.M.; read-out: IC50 HL-60 Leukemia. In kind it is cell-based, human.
In series [5] the test system is DU145 prostate cancer cells. The series is described as follows: MTT antiproliferative assay, DU145. In kind it is cell-based. To be noted: Homo sapiens, DU-145; MTT assay; cancer cell line; mean of three independent experiments ± S.E.M.; read-out: IC50 DU145 Prostate.
Series [6] relates to human peripheral blood mononuclear cells (PBMC). Briefly: MTT assay on normal PBMC. In kind it is cell-based. Conditions: MTT assay, normal cells, 48 h, read-out: IC50 PBMC (normal cells).
For series [7], the system named is HeLa cervical cancer cells. The series is described as follows: MTT antiproliferative assay, HeLa. Conditions: Homo sapiens, MTT assay, cancer cell line, mean of three independent experiments ± S.E.M., read-out: IC50 HeLa Cervical. In kind it is cell-based.
The next series has as its system MCF-7 cells. Briefly: Rhodamine-123 mitochondrial membrane potential assay, MCF-7. In kind it is cell-based, human. To be noted: 24 h. The method, then:
[Worded in the source for another cell line; this cell line is reported under the same test.] Mitochondrial membrane potential changes (ΔΨm) were determined by flow cytometry using rhodamine-123 (green-fluorescent dye)[32]. MIA PaCa-2 pancreatic cancer cells (1 × 10^6 cells/well) were exposed to the isolated compound (5 µM) for 24 h. Further, rhodamine-123 (200 nM) was added to the cells, which were kept in dark for 35 min. The cells were further centrifuged and the pellet was washed with phosphate buffered saline (1 ml). The intensity of fluorescence in the cells represented the mitochondrial membrane potential change (ΔΨm), which was measured using a flow cytometer.

What is called IC50 is the point on the concentration scale where inhibition reaches its midpoint. `CC[C@@]1(O)C(=O)OCc2c1cc1n(c2=O)Cc2cc3ccccc3nc2-1` [Camptothecin, camptothecin, reference compound]: the IC50 in series [1] is 3.68 ± 0.21 µM; in series [2] it was 4.24 ± 0.41 µM; in series [3], 5.16 ± 0.32 µM; in series [4], more than 100 µM; with HL-60 leukemia cells it was 4.95 ± 0.5 µM; in series [5] it was 6.75 ± 0.45 µM. Further, the values for the IC50 in series [6] and in series [7] were more than 100 µM and 4.28 ± 0.32 µM, respectively. The results for the “mitochondria membrane potential loss” value with MCF-7 cells (5 µM) and in the series with MCF-7 cells (10 µM) were 53.33 ± 3.06% and 62 ± 2.31%, respectively.

What is called melting point is the temperature of the solid-liquid transition. Regarding `COc1cc(C(=O)OC[C@H]2O[C@@H](Oc3ccc(CO)cc3OC)[C@H](O)[C@@H](O)[C@@H]2O)ccc1O` [Compound 10, (6-(4-(hydroxymethyl)-2-methoxyphenoxy)-tetrahydro-3,4,5-trihydroxy-2H-pyran-2-yl) methyl 4-hydroxy-3-methoxy benzoate], the melting point lay within 200 to 202 °C. Moreover, the half-inhibitory concentration (IC50) in series [1] worked out at 44.7 ± 2.52 µM. Also, in series [2], the IC50 was found to be 28.3 ± 0.76 µM. In addition, the IC50 in [3] is 24.9 ± 1.67 µM. Moreover, in series [4], the 50% inhibitory concentration (IC50) is more than 100 µM. Moreover, the half-maximal inhibitory concentration (IC50) with HL-60 leukemia cells was 31.8 ± 1.82 µM. Further, the half-inhibitory concentration (IC50) in [5] was found to be 33.5 ± 1.43 µM. In addition, in series [6], the IC50 is more than 100 µM. Also, the half-inhibitory concentration (IC50) in series [7] stood at 39.9 ± 2.6 µM.
